Laboratory results: patent US20250295668A1, “METHODS FOR INDUCING COLANIC ACID BIOSYNTHESIS” (priority 2024, published 2025)
Values after ≈ are worked out from the molar mass of the structure shown. Values joined by “and” are separate entries in the source; they are usually repeats but may differ in a detail not shown here. Equal entries are not always repeated. “Also recorded” adds a separate entry of the source. Where two headings read alike, the source gives them in different places.

What was measured:
[1] = Age-related metabolic dysfunction in mice, cephaloridine in drinking water; type: in vivo; settings: oral 2 μg/mL
Method: Methods: Co-housed 12-month-old […] mice were given MG1655 E. coli at 1×10^8 CFU/mL through distilled drinking water (100 mL) for 24 hours to maintain E. coli occupancy in the mouse gut microbiota. Subsequently, mice received 2 μg/mL cephaloridine through drinking water (100 mL) for 60 hours. […] This entire procedure was then repeated. Cephaloridine dosages were calculated as follows. Briefly, a typical mouse used in this study consumed 5-10 ml of water per day and weighed between 30-40 g. Using the 2 μg/mL concentration, a lower bound of 0.25 mg/kg (0.002 mg/mL×5 mL=0.04 kg) and a higher bound of 0.67 mg/kg (0.002 mg/mL×10 mL=0.03 kg) were identified.

E. coli deletion mutants = assay: Colanic acid measurement in E. coli deletion mutants; type: cell-based; settings: low-dose cephaloridine
Method: (§1) For colanic acid quantification, E. coli Keio mutants and the parental strain BW25113 were cultured overnight at 37° C. in M9 minimum medium [PMID: 28436966]. Bacteria were then removed by centrifugation and filtered for colanic acid measurement.
(§2) The desired bacterial strain was first inoculated and cultured in M9 minimum medium overnight at 37° C. to obtain the seeding culture. The OD 600 was measured, and the seeding bacteria were diluted to OD600=0.02 in M9 minimum medium for another 16 hours. After the incubation, bacterial cultures were collected in 50 mL tubes, spun down at 4,000 g at 4° C. for 30 min, filtered, and 25 mL of supernatant was collected per 50 ml conical tube. Ice-cold 100% ethanol (EtOH) was added to make a final 50% EtOH solution for precipitation, and the mixture was kept at 4° C. overnight. Once precipitation occurred, the liquid was carefully removed after centrifugation at 4,000 g at 4° C. for 50 min. The pellet was washed once with cold 80% EtOH and then air-dried in a hood. The pellet from every 50 mL culture was resuspended in 500 μL distilled H2O. The solution was sonicated for 60 minutes at 37° C., followed by centrifugation at 4000 g at 4° C. for 10 minutes. A 200 μL sample was mixed with 30 μL hydrochloric acid (320331-500 mL, Sigma-Aldrich) and boiled for 2 hours. Subsequently, 60 μL 5M NaOH and 150 μL NaHCO3/NaOH buffer were added to reach a pH of 6-8, calibrated by 1M HCl or NaOH solutions. The fucose quantification assay was then carried out using a K-FUCOSE kit (Megazyme) according to the manufacturer's protocol.
The molecular mechanism behind the induction of colanic acid by low-dose cephaloridine was investigated. It was suspected that regulation of the cps operon was centered on the well-known RCS two-component system. Canonically, the RcsC sensor histidine kinase situated in the inner membrane autophosphorylates in response to environmental cues, then the RcsD phosphotransferase transmits the phosphoryl group to the cytosolic response regulator RcsB, which functions as a transcription factor to up-regulate the cps operon, with RcsA interacting with RcsB to enhance its binding with the promoter, thereby stimulating transcriptional activation (FIG. 4A). To assess the necessity of the RCS system in colanic acid induction by low-dose cephaloridine, the E. coli deletion mutants of rcsA, rcsB, rcsC, and rcsD were treated with cephaloridine and colanic acid production was measured in their respective culture mediums.
Considering β-lactam antibiotics show preferential affinities to various penicillin-binding proteins (PBPs) [PMID: 25733506] [PMID: 1103132], the role of these inner membrane proteins in colanic acid induction upon low-dose cephaloridine treatment was determined. […] (FIG. 5A).
To investigate potential mediation of colanic acid induction by these kinases, E. coli deletion mutants of btsS, glrK, and zraS were treated with low-dose cephaloridine and colanic acid levels in their respective culture mediums were measured. Due to slow growth in the M9 culture medium, the rstB deletion mutant could not be evaluated.

E. coli [2] = settings: previously reported, cited from earlier work
wildtype E. coli = assay: Colanic acid measurement (fucose quantification) in wildtype E. coli culture medium; type: cell-based
Method: as §1, §2
Next, colanic acid in the bacteria culture medium was quantified via monosaccharide-fucose-from acid-hydrolyzed polysaccharide precipitates. […] Calculations were performed to determine the equivalent dosage by weight in a mammalian subject. Briefly, a typical mouse consumes 5-10 ml of water per day and weighs between 30-40 g. Using the 1.8 μg/mL concentration, a lower bound of 0.225 mg/kg (0.0018 mg/mL×5 ml[…]0.04 kg) and a higher bound of 0.6 mg/kg (0.0018 mg/mL×10 ml÷0.03 kg) were identified. […] In wild-type bacteria treated with cephaloridine and Alon E. coli mutants colanic acid production increased during the exponential growth phase and remained elevated in the stationary phase (FIG. 1D).

E. coli [3] = assay: Bacterial growth under low-dose cephaloridine; type: cell-based; settings: low-dose cephaloridine vs vehicle-treated E. coli

O=C(Cc1cccs1)N[C@@H]1C(=O)N2C(C(=O)[O-])=C(C[n+]3ccccc3)CS[C@H]12 [cephaloridine]
increase in plasma insulin between 12 and 18 months of age vs controls ([1]; female mice): lower | age-related increase in LDL:HDL ratio ([1]; male mice): suppressed | plasma HDL ([1]; male mice): not affected | plasma LDL between 12 and 18 months of age ([1]; male mice): remain nearly unchanged | amount of colanic acid vs treated wild-type strain (E. coli deletion mutants; DacB deletion mutant (PBP4)): even greater amount of colanic acid than the wild-type strain | induction of colanic acid (E. coli deletion mutants; DacB deletion mutant (PBP4)): did induce colanic acid production | induction of colanic acid (E. coli deletion mutants; mrcA deletion mutant (PBP1a)): failed to induce colanic acid | induction of colanic acid (E. coli deletion mutants; rcsA deletion mutant): completely abolished the induction of colanic acid | induction of colanic acid (E. coli deletion mutants; rcsB deletion mutant): completely abolished the induction of colanic acid | induction of colanic acid (E. coli deletion mutants; rcsC deletion mutant): no impact on the induction of colanic acid | induction of colanic acid (E. coli deletion mutants; rcsD deletion mutant): no impact on the induction of colanic acid | induction of colanic acid (E. coli deletion mutants; zraS deletion mutant): suppressed the induction of colanic acid | MIC (E. coli [2]; PMID 380457): 2 µg/mL (≈ 4.81 µM) | MIC (E. coli [2]; PMID 9371340): 4 µg/mL (≈ 9.63 µM) | colanic acid production vs untreated wildtype control (wildtype E. coli; cephaloridine 1.8 μg/mL, 37° C.): 6 fold | optimal concentration for inducing colanic acid biosynthesis (wildtype E. coli; range of doses below MIC): 1.8 μg/mL and 4.3 μM | effect on bacterial growth (E. coli [3]): did not hinder bacteria growth; also recorded: does not alter bacterial growth
